Assay results from patent publication US20260028365A1 (BIOGEN MA INC., priority 2022, published 2026).
pIC50: −log10 of the molar value.

Assays:
[1] = target: JH2 domain of human Tyk2 (Homo sapiens (Human), UniProt P29597); assay: JH2 Biochemical Assay (TR-FRET probe displacement); assay type: binding; conditions: TR-FRET probe displacement, JH2 domain of human Tyk2
[2] = target: Tyk2 (Homo sapiens (Human), UniProt P29597); assay: pSTAT4 Cell Assay (MSD, NK92 cells); assay type: cell-based; conditions: MSD
Chain of Tyk2 (P29597 whole entry): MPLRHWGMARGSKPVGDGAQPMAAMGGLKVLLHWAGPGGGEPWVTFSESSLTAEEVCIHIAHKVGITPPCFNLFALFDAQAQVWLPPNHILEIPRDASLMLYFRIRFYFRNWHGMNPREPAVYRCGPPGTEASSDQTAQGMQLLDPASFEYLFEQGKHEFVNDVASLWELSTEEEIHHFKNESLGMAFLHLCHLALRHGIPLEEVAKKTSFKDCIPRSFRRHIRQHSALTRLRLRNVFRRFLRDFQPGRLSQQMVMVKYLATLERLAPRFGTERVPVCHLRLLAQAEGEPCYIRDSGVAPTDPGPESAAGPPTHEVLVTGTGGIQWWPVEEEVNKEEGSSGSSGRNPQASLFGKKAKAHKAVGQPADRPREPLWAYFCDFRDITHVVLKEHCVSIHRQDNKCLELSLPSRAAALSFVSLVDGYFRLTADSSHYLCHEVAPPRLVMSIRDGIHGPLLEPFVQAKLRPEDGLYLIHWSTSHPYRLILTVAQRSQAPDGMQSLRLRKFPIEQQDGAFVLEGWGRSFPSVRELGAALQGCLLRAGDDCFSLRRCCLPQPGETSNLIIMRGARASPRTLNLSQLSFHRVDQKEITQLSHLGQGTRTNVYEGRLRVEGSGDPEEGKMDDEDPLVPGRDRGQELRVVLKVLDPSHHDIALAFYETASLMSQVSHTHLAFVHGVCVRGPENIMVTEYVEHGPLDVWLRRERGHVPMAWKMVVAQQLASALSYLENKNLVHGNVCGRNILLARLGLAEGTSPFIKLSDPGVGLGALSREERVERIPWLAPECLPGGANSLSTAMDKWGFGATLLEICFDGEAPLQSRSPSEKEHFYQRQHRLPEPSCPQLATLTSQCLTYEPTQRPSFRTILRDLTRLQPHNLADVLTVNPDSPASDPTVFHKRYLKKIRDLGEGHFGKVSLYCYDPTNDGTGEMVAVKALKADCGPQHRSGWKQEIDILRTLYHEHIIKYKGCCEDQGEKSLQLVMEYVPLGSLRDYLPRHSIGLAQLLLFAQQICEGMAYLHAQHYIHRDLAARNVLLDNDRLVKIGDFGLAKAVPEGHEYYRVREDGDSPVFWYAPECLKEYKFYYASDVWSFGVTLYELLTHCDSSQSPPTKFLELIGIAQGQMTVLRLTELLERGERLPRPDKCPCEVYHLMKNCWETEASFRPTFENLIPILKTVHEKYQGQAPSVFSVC

Chain of JH2 domain of human Tyk2 (P29597 575-876): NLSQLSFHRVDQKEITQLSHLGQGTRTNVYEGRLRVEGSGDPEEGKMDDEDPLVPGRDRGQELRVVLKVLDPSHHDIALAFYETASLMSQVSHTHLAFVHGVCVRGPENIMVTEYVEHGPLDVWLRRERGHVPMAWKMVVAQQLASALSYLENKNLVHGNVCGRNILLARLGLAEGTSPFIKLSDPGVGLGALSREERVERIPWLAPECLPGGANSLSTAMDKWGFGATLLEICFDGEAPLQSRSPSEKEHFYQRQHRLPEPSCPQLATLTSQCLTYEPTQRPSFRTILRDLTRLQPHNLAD

Work on `COc1nc(C)cc(-c2cnc(NC(C)=O)cc2Nc2ccnc(C(C)(F)F)n2)n1` [Example 164, N-(4-((2-(1,1-difluoroethyl)pyrimidin-4-yl)amino)-5-(2-methoxy-6-methylpyrimidin-4-yl)pyridin-2-yl)acetamide] yielded a pIC50 [1] of no less than 8.00 and a pIC50 [2] of 7.00 to 8.00.

In the case of `CC(=O)Nc1cc(Nc2ccnc(C(C)(F)F)n2)c(-c2ncn(C)n2)cn1` [Example 165, N-(4-((2-(1,1-difluoroethyl)pyrimidin-4-yl)amino)-5-(1-methyl-1H-1,2,4-triazol-3-yl)pyridin-2-yl)acetamide], the pIC50 [1] was 7.00 to 8.00 and the pIC50 [2] was 6.00 to 7.00.

With `CCc1cc(Nc2cc(NC(C)=O)ncc2-c2ncn(C)n2)nc(C(C)(F)F)n1` [Example 166, N-(4-((2-(1,1-difluoroethyl)-6-ethylpyrimidin-4-yl)amino)-5-(1-methyl-1H-1,2,4-triazol-3-yl)pyridin-2-yl)acetamide] the pIC50 [1] was no less than 8.00 and the pIC50 [2] was 7.00 to 8.00.

`CCc1cc(Nc2cc(NC(C)=O)ncc2-c2nnc(C)s2)nc(C(C)(F)F)n1` [Example 167, N-(4-((2-(1,1-difluoroethyl)-6-ethylpyrimidin-4-yl)amino)-5-(5-methyl-1,3,4-thiadiazol-2-yl)pyridin-2-yl)acetamide] was tested, and the pIC50 [1] was no less than 8.00 and the pIC50 [2] was no less than 8.00.

Work on `CCc1cc(Nc2cc(NC(C)=O)ncc2-c2nnc(C)o2)nc(C(C)(F)F)n1` [Example 168, N-(4-((2-(1,1-difluoroethyl)-6-ethylpyrimidin-4-yl)amino)-5-(5-methyl-1,3,4-oxadiazol-2-yl)pyridin-2-yl)acetamide] yielded a pIC50 [1] of no less than 8.00 and a pIC50 [2] of 7.00 to 8.00.

`CC(=O)Nc1cc(Nc2cccc(OC(F)F)n2)c(-c2ccncn2)cn1` [Example 171, N-(4-((6-(difluoromethoxy)pyridin-2-yl)amino)-5-(pyrimidin-4-yl)pyridin-2-yl)acetamide] showed a pIC50 [1] of no less than 8.00 and a pIC50 [2] of 6.00 to 7.00.

In the case of `CC(=O)Nc1cc(Nc2cccc(C(C)(F)F)n2)c(-c2ccnc(C)n2)cn1` [Example 172, N-(4-((6-(1,1-difluoroethyl)pyridin-2-yl)amino)-5-(2-methylpyrimidin-4-yl)pyridin-2-yl)acetamide], the pIC50 [1] was no less than 8.00 and the pIC50 [2] was no less than 8.00.

In the case of `CC(=O)Nc1cc(Nc2ccnc(C(C)(F)F)n2)c(-c2ccnc(C)n2)cn1` [Example 173, N-(4-((2-(1,1-difluoroethyl)pyrimidin-4-yl)amino)-5-(2-methylpyrimidin-4-yl)pyridin-2-yl)acetamide], the pIC50 [1] was no less than 8.00 and the pIC50 [2] was no less than 8.00.

Work on `CC(=O)Nc1cc(Nc2cc(C)nc(C(C)(F)F)n2)c(-c2ccnc(C)n2)cn1` [Example 174, N-(4-((2-(1,1-difluoroethyl)-6-methylpyrimidin-4-yl)amino)-5-(2-methylpyrimidin-4-yl)pyridin-2-yl)acetamide] yielded a pIC50 [1] of no less than 8.00 and a pIC50 [2] of no less than 8.00.

`CC(=O)Nc1cc(Nc2cc(C)nc(C(C)(C)F)n2)c(-c2ccnc(C)n2)cn1` [Example 176, N-(4-((2-(2-fluoropropan-2-yl)-6-methylpyrimidin-4-yl)amino)-5-(2-methylpyrimidin-4-yl)pyridin-2-yl)acetamide] showed a pIC50 [1] of no less than 8.00 and a pIC50 [2] of no less than 8.00.

`COc1nccc(-c2cnc(NC(C)=O)cc2Nc2cccc(C(C)(F)F)n2)n1` [Example 177, N-(4-((6-(1,1-difluoroethyl)pyridin-2-yl)amino)-5-(2-methoxypyrimidin-4-yl)pyridin-2-yl)acetamide] gave a pIC50 [1] of no less than 8.00 and a pIC50 [2] of no less than 8.00.

Compound `COc1nccc(-c2cnc(NC(C)=O)cc2Nc2ccnc(C(C)(F)F)n2)n1` [Example 178, N-(4-((2-(1,1-difluoroethyl)pyrimidin-4-yl)amino)-5-(2-methoxypyrimidin-4-yl)pyridin-2-yl)acetamide] has a pIC50 [1] of no less than 8.00 and a pIC50 [2] of no less than 8.00.

In the case of `COc1nccc(-c2cnc(NC(C)=O)cc2Nc2cc(C)nc(C(C)(F)F)n2)n1` [Example 179, N-(4-((2-(1,1-difluoroethyl)-6-methylpyrimidin-4-yl)amino)-5-(2-methoxypyrimidin-4-yl)pyridin-2-yl)acetamide], the pIC50 [1] was no less than 8.00 and the pIC50 [2] was no less than 8.00.

`COc1nccc(-c2cnc(NC(C)=O)cc2Nc2ccnc(C(C)(C)F)n2)n1` [Example 180, N-(4-((2-(2-fluoropropan-2-yl)pyrimidin-4-yl)amino)-5-(2-methoxypyrimidin-4-yl)pyridin-2-yl)acetamide] was tested, and the pIC50 [1] was no less than 8.00 and the pIC50 [2] was no less than 8.00.

`COc1nccc(-c2cnc(NC(C)=O)cc2Nc2cc(C)nc(C(C)(C)F)n2)n1` [Example 181, N-(4-((2-(2-fluoropropan-2-yl)-6-methylpyrimidin-4-yl)amino)-5-(2-methoxypyrimidin-4-yl)pyridin-2-yl)acetamide] was tested, and the pIC50 [1] was no less than 8.00 and the pIC50 [2] was no less than 8.00.

`CCc1cc(Nc2cc(NC(C)=O)ncc2-c2ncc(F)cn2)nc(C(C)(F)F)n1` [Example 183, N-(4-((2-(1,1-difluoroethyl)-6-ethylpyrimidin-4-yl)amino)-5-(5-fluoropyrimidin-2-yl)pyridin-2-yl)acetamide] was tested, and the pIC50 [1] was no less than 8.00 and the pIC50 [2] was 7.00 to 8.00.

With `CC(=O)Nc1cc(Nc2cc(C(C)C)nc(C(C)(F)F)n2)c(-c2ncc(F)cn2)cn1` [Example 184, N-(4-((2-(1,1-difluoroethyl)-6-isopropylpyrimidin-4-yl)amino)-5-(5-fluoropyrimidin-2-yl)pyridin-2-yl)acetamide] the pIC50 [1] was no less than 8.00 and the pIC50 [2] was 7.00 to 8.00.

For `CC(=O)Nc1cc(Nc2cccc(C(C)(F)F)n2)c(-c2ncc(F)cn2)cn1` [Example 186, N-(4-((6-(1,1-difluoroethyl)pyridin-2-yl)amino)-5-(5-fluoropyrimidin-2-yl)pyridin-2-yl)acetamide], the pIC50 [1] was no less than 8.00 and the pIC50 [2] was 7.00 to 8.00.

Compound `CC(=O)Nc1cc(Nc2ccnc(C(C)(F)F)c2)c(-c2ncc(F)cn2)cn1` [Example 187, N-(4-((2-(1,1-difluoroethyl)pyridin-4-yl)amino)-5-(5-fluoropyrimidin-2-yl)pyridin-2-yl)acetamide] has a pIC50 [1] of 7.00 to 8.00 and a pIC50 [2] of no more than 6.00.

For `CC(=O)Nc1cc(Nc2cncc(C(C)(F)F)n2)c(-c2ncc(F)cn2)cn1` [Example 188, N-(4-((6-(1,1-difluoroethyl)pyrazin-2-yl)amino)-5-(5-fluoropyrimidin-2-yl)pyridin-2-yl)acetamide], the pIC50 [1] was no less than 8.00 and the pIC50 [2] was 7.00 to 8.00.

`CC(=O)Nc1cc(Nc2cncc(C(C)(C)F)n2)c(-c2ncc(F)cn2)cn1` [Example 189, N-(4-((6-(2-fluoropropan-2-yl)pyrazin-2-yl)amino)-5-(5-fluoropyrimidin-2-yl)pyridin-2-yl)acetamide] showed a pIC50 [1] of 7.00 to 8.00 and a pIC50 [2] of 7.00 to 8.00.

`CC(=O)Nc1cc(Nc2cc(C)cc(C(C)(F)F)n2)c(-c2ncc(F)cn2)cn1` [Example 190, N-(4-((6-(1,1-difluoroethyl)-4-methylpyridin-2-yl)amino)-5-(5-fluoropyrimidin-2-yl)pyridin-2-yl)acetamide] was tested, and the pIC50 [1] was no less than 8.00 and the pIC50 [2] was 7.00 to 8.00.

`COc1cc(Nc2cc(NC(C)=O)ncc2-c2ncc(F)cn2)nc(C(C)(F)F)c1` [Example 191, N-(4-((6-(1,1-difluoroethyl)-4-methoxypyridin-2-yl)amino)-5-(5-fluoropyrimidin-2-yl)pyridin-2-yl)acetamide] gave a pIC50 [1] of no less than 8.00 and a pIC50 [2] of 7.00 to 8.00.

`COc1cc(Nc2cc(NC(C)=O)ncc2-c2ncc(F)cn2)nc(C(C)(F)F)n1` [Example 192, N-(4-((2-(1,1-difluoroethyl)-6-methoxypyrimidin-4-yl)amino)-5-(5-fluoropyrimidin-2-yl)pyridin-2-yl)acetamide] showed a pIC50 [1] of no less than 8.00 and a pIC50 [2] of 7.00 to 8.00.

Compound `COc1cc(-c2cnc(NC(C)=O)cc2Nc2ccnc(C(C)(F)F)n2)ncn1` [Example 193, N-(4-((2-(1,1-difluoroethyl)pyrimidin-4-yl)amino)-5-(6-methoxypyrimidin-4-yl)pyridin-2-yl)acetamide] has a pIC50 [1] of no less than 8.00 and a pIC50 [2] of 7.00 to 8.00.

Compound `COc1cc(-c2cnc(NC(C)=O)cc2Nc2cc(C)nc(C(C)(F)F)n2)ncn1` [Example 194, N-(4-((2-(1,1-difluoroethyl)-6-methylpyrimidin-4-yl)amino)-5-(6-methoxypyrimidin-4-yl)pyridin-2-yl)acetamide] has a pIC50 [1] of no less than 8.00 and a pIC50 [2] of no less than 8.00.

`COc1cc(-c2cnc(NC(C)=O)cc2Nc2cc(C)nc(C(C)(C)F)n2)ncn1` [Example 196, N-(4-((2-(2-fluoropropan-2-yl)-6-methylpyrimidin-4-yl)amino)-5-(6-methoxypyrimidin-4-yl)pyridin-2-yl)acetamide] showed a pIC50 [1] of no less than 8.00 and a pIC50 [2] of 7.00 to 8.00.

`CC(=O)Nc1cc(Nc2cc(C)nc(C(C)(F)F)n2)c(-c2cc(C)ncn2)cn1` [Example 197, N-(4-((2-(1,1-difluoroethyl)-6-methylpyrimidin-4-yl)amino)-5-(6-methylpyrimidin-4-yl)pyridin-2-yl)acetamide] showed a pIC50 [1] of no less than 8.00 and a pIC50 [2] of no less than 8.00.

`CC(=O)Nc1cc(Nc2ccnc(C(C)(C)F)n2)c(-c2cc(C)ncn2)cn1` [Example 198, N-(4-((2-(2-fluoropropan-2-yl)pyrimidin-4-yl)amino)-5-(6-methylpyrimidin-4-yl)pyridin-2-yl)acetamide] showed a pIC50 [1] of no less than 8.00 and a pIC50 [2] of 7.00 to 8.00.

Compound `CC(=O)Nc1cc(Nc2ccnc(C(C)(F)F)n2)c(-c2ccn(C)n2)cn1` [Example 202, N-(4-((2-(1,1-difluoroethyl)pyrimidin-4-yl)amino)-5-(1-methyl-1H-pyrazol-3-yl)pyridin-2-yl)acetamide] has a pIC50 [1] of no less than 8.00 and a pIC50 [2] of no less than 8.00.

With `CC(=O)Nc1cc(Nc2nccc(C(C)(F)F)n2)c(-c2ccn(C)n2)cn1` [Example 203, N-(4-((4-(1,1-difluoroethyl)pyrimidin-2-yl)amino)-5-(1-methyl-1H-pyrazol-3-yl)pyridin-2-yl)acetamide] the pIC50 [1] was no less than 8.00 and the pIC50 [2] was no less than 8.00.

With `CCc1cc(Nc2cc(NC(C)=O)ncc2-c2ccn(C)n2)nc(C(C)(F)F)n1` [Example 204, N-(4-((2-(1,1-difluoroethyl)-6-ethylpyrimidin-4-yl)amino)-5-(1-methyl-1H-pyrazol-3-yl)pyridin-2-yl)acetamide] the pIC50 [1] was no less than 8.00 and the pIC50 [2] was no less than 8.00.

`CC(=O)Nc1cc(Nc2cc(C3CC3)nc(C(C)(F)F)n2)c(-c2ccn(C)n2)cn1` [Example 206, N-(4-((6-cyclopropyl-2-(1,1-difluoroethyl)pyrimidin-4-yl)amino)-5-(1-methyl-1H-pyrazol-3-yl)pyridin-2-yl)acetamide] showed a pIC50 [1] of no less than 8.00 and a pIC50 [2] of no less than 8.00.
